Data reported in US6737383B1, “Herbicidal oxadiazolidines” (priority 1999, dated 2004).

Columns and labels:
blackgrass = assay: Test B pre/postemergence blackgrass; type: in vivo, Alopecurus myosuroides
How it was run: (§1)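 Test chemicals in a non-phytotoxic solvent mixture with surfactant were sprayed preemergence onto planted seeds and postemergence onto plants 2 to 18 cm tall (1- to 4-leaf stage). After twelve to sixteen days in a greenhouse, injury was visually rated against untreated controls from 0 (no effect) to 10 (complete control).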

soybean = assay: Test B pre/postemergence soybean; type: in vivo, Glycine max
How it was run: as §1

rice = assay: Test B flood test rice; type: in vivo, Oryza sativa
How it was run: (§2)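 Read-out is a visual response score from 0 (no effect) to 10 (complete control), assigned by comparison with untreated controls. Treatment was applied at the 2-leaf stage, and plants stayed in the greenhouse for twelve to sixteen days before scoring.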

smallflower flatsedge = assay: Test B flood test smallflower flatsedge; type: in vivo, Cyperus difformis
How it was run: as §2

pigweed = assay: Test B pre/postemergence pigweed; type: in vivo, Amaranthus retroflexus
How it was run: as §1

giant foxtail = assay: Test B pre/postemergence giant foxtail; type: in vivo, Setaria faberii
How it was run: as §1

rape = assay: Test B pre/postemergence rape; type: in vivo, Brassica napus
How it was run: as §1

cocklebur = assay: Test B pre/postemergence cocklebur; type: in vivo, Xanthium strumarium
How it was run: as §1

wheat = assay: Test B pre/postemergence wheat; type: in vivo, Triticum aestivum
How it was run: as §1

duck salad = assay: Test B flood test duck salad; type: in vivo, Heteranthera limosa
How it was run: as §2

[1] = Postemergence, Rate 62 g/ha, scale of 0 to 10, 0 is no effect, 10 is complete control
[2] = Postemergence, Rate 125 g/ha, scale of 0 to 10 where 0 is no effect and 10 is complete control
[3] = Postemergence, Rate 250 g/ha, scale of 0 to 10, 0 is no effect, 10 is complete control
[4] = Postemergence, Rate 500 g/ha, scale of 0 to 10 where 0 is no effect and 10 is complete control
[5] = Preemergence, Rate 62 g/ha, scale 0 to 10 (0 no effect, 10 complete control)
[6] = Preemergence, Rate 125 g/ha, scale of 0 to 10 where 0 is no effect and 10 is complete control
[7] = Preemergence, Rate 500 g/ha, scale of 0 to 10 where 0 is no effect and 10 is complete control
[8] = Rate 62 g/ha, flood test species, Pre-emergence, visual evaluation after twelve to sixteen days
[9] = Rate 125 g/ha, under heading Pre-emergence, flood test species, visual evaluation after twelve to sixteen days
[10] = Rate 250 g/ha, Pre-emergence (flood test species), scale 0 to 10, 0 is no effect, 10 is complete control
[11] = Rate 500 g/ha, Pre-emergence section of Table B, 0 to 10 scale (0 no effect, 10 complete control)

CC(C)N(C(=O)n1oc(=O)n(CC(=O)N(C)C)c1=O)c1ccc(F)cc1 [Compound 586]
Blackgrass plant response rating (blackgrass; [1]): 0 | Plant response rating, Blackgrass (blackgrass; [2]): 1 | Blackgrass plant response rating (blackgrass; [3]): 3 | Plant response rating, Blackgrass (blackgrass; [4]): 8 | Blackgrass plant response rating (blackgrass; [5]): 3 | Blackgrass plant response rating (blackgrass; [6]): 7 | Blackgrass plant response rating (0 to 10 scale) (blackgrass; Preemergence, Rate 250 g/ha): 9 | Blackgrass plant response rating (blackgrass; [7]): 10 | Plant response rating, Soybean (soybean; [2]): 3 | Soybean plant response rating (soybean; [3]): 3 | Plant response rating, Soybean (soybean; [4]): 3 | Soybean plant response rating (soybean; [5]): 0 | Soybean plant response rating (soybean; [6]): 0 | Soybean plant response rating (soybean; [7]): 0 | Plant response rating, Rice (0 to 10 scale, 0 is no effect, 10 is complete control) (rice; [8]): 0 | Rice plant response rating (0 to 10 scale, 0 is no effect, 10 is complete control) (rice; [9]): 0 | Rice plant response rating (rice; [10]): 0 | Rice plant response rating (rice; [11]): 0 | Plant response rating, S. Flatsedge (0 to 10 scale, 0 is no effect, 10 is complete control) (smallflower flatsedge; [8]): 0 | S. Flatsedge plant response rating (0 to 10 scale, 0 is no effect, 10 is complete control) (smallflower flatsedge; [9]): 0 | S. Flatsedge plant response rating (smallflower flatsedge; [10]): 0 | S. Flatsedge plant response rating (smallflower flatsedge; [11]): 0 | Plant response rating, Redroot pigweed (pigweed; [2]): 0 | Redroot pigweed plant response rating (pigweed; [3]): 0 | Plant response rating, Redroot pigweed (pigweed; [4]): 2 | Redroot pigweed plant response rating (pigweed; [5]): 0 | Redroot pigweed plant response rating (pigweed; [6]): 8 | Redroot pigweed plant response rating (pigweed; [7]): 10 | Giant foxtail plant response rating (giant foxtail; [1]): 2 | Plant response rating, Giant foxtail (giant foxtail; [2]): 2 | Giant foxtail plant response rating (giant foxtail; [3]): 8 | Plant response rating, Giant foxtail (giant foxtail; [4]): 9 | Giant foxtail plant response rating (giant foxtail; [5]): 9 | Giant foxtail plant response rating (giant foxtail; [6]): 10 | Giant foxtail plant response rating (giant foxtail; [7]): 10 | Rape plant response rating (rape; [1]): 0 | Plant response rating, Rape (rape; [2]): 0 | Rape plant response rating (rape; [3]): 0 | Plant response rating, Rape (rape; [4]): 0 | Rape plant response rating (rape; [5]): 0 | Rape plant response rating (rape; [6]): 0 | Rape plant response rating (rape; [7]): 4 | Cocklebur plant response rating (cocklebur; [1]): 0 | Plant response rating, Cocklebur (cocklebur; [2]): 0 | Cocklebur plant response rating (cocklebur; [3]): 0 | Plant response rating, Cocklebur (cocklebur; [4]): 0 | Cocklebur plant response rating (cocklebur; [5]): 0 | Cocklebur plant response rating (cocklebur; [6]): 0 | Cocklebur plant response rating (0 to 10 scale) (cocklebur; Preemergence, Rate 250 g/ha): 0 | Cocklebur plant response rating (cocklebur; [7]): 0 | Plant response rating, Wheat (wheat; [2]): 0 | Wheat plant response rating (wheat; [3]): 0 | Plant response rating, Wheat (wheat; [4]): 0 | Wheat plant response rating (wheat; [5]): 0 | Wheat plant response rating (wheat; [6]): 0 | Wheat plant response rating (wheat; [7]): 8 | Plant response rating, Ducksalad (0 to 10 scale, 0 is no effect, 10 is complete control) (duck salad; [8]): 0 | Ducksalad plant response rating (0 to 10 scale, 0 is no effect, 10 is complete control) (duck salad; [9]): 0 | Ducksalad plant response rating (duck salad; [10]): 0 | Ducksalad plant response rating (duck salad; [11]): 0
